Publication PMC10724293, “New ruthenium-xanthoxylin complex eliminates colorectal cancer stem cells by targeting the heat shock protein 90 chaperone” (Cell Death & Disease, 2023)

Assays:
HCT116 cells [1] = assay: Cell cycle distribution and internucleosomal DNA fragmentation by flow cytometry; format: cell-based, human
Protocol: For quantification of internucleosomal DNA fragmentation and cell cycle distribution, the cells were stained with PI using a solution containing 0.1% Triton X-100, 2 µg/ml PI, 0.1% sodium citrate, and 100 µg/ml RNAse (all from Sigma-Aldrich) and incubated in the dark for 15 min at room temperature. Finally, cell fluorescence was measured using flow cytometry.
For all flow cytometry analyses, cell fluorescence was measured with a BD LSRFortessa cytometer and analyzed by BD FACSDiva Software (BD Biosciences) and FlowJo Software 10 (FlowJo LLC; Ashland, OR, USA). At least 10,000 events were evaluated per sample for intracellular staining, and at least 30,000 events were acquired per sample for cell surface protein staining. FSC-A versus FCS-H and SCC-A versus SCC-H were used to remove the doublets. The analysis excluded cellular debris.

HCT116 cells [2] = assay: Trypan blue exclusion assay; format: cell-based, human; conditions: 2.5, 5 and 10 μM; 24, 48 and 72 h
Protocol: The trypan blue exclusion assay was used to quantify the number of viable cells. Briefly, 90 μl of the cell suspension plus 10 μl of trypan blue (0.4%) were mixed, and an aliquot was analyzed in a hemocytometer. The number of viable (unstained cells) and nonviable (trypan blue-stained cells) cells was counted using a light microscope.

HCT116 cells [3] = assay: Colonosphere assay; format: cell-based, human
Protocol: HCT116 cells, at densities of 1.25 × 10^5 cells/ml, were cultured in 24-well low adhesion plates (Corning, USA) in serum-free DMEM-F12 supplemented with 20 ng/ml bFGF (PeproTech, USA), 20 ng/ml EGF (PeproTech, USA), and B27 supplement (Invitrogen, Carlsbad, CA, USA). On the following day, the cells were subjected to drug concentrations of 20, 10, 5, 2.5, and 1.25 μM. The cells were photographed using an optical microscope after 0, 24, 48, and 72 h of incubation (Leica, DMI8). Furthermore, 10 µM RXC-treated cells were stained with acridine orange/PI and analyzed by confocal microscopy or stained with anti-CD133 antibody plus YO-PRO-1 and analyzed by flow cytometry.

HCT116 cells [4] = assay: CRC experimental lung metastasis xenograft model; format: in vivo, C. B-17 SCID mice; conditions: 2 mg/kg i.p. every other day for 4 weeks; control 5.0 ± 0.5
Protocol: HCT116 cells (2 × 10^6 cells/100 μl) were injected into the tail vein of each mouse. The animals were then treated intraperitoneally (200 μl/animal) every other day for 4 weeks. […] The animals were euthanized with an anesthetic overdose (thiopental, 100 mg/kg) 1 day after treatment ended, and their lungs were excised and fixed in 4% formaldehyde. The number of lung macrometastases per animal was counted and processed for histological analysis.

BAD KO SV40 MEF = assay: Alamar blue survival curves and cell death; format: cell-based, mouse; conditions: BAD KO SV40 MEF vs WT SV40 MEF; 10 μM, 48 h
Protocol: The Alamar blue assay was used to determine cell viability as previously described. Cells were seeded into 96-well plates at a density of 7 × 10^3 cells per well for adherent cells or 3 × 10^4 cells per well for suspended cells. The drug was added to each well after 24 h of incubation for adherent cells or immediately for suspended cells and incubated for an additional 72 h. […] Each well received 100 µM resazurin (Sigma-Aldrich Co. St. Louis, MO, United States) four (for cell lines) or 24 (for primary culture) h before the end of the incubation. A SpectraMax 190 Microplate Reader (Molecular Devices, Sunnyvale, CA, USA) was used to measure absorbance at 570 and 600 nm.
For apoptosis detection or functional assays, cell viability was quantified using annexin V-FITC/PI (FITC Annexin V Apoptosis Detection Kit I, BD Biosciences, San Jose, CA, USA) or YO-PRO-1/PI (Sigma-Aldrich Co.). The following inhibitors were used: chloroquine (autophagy inhibitor, Ipca Laboratories, Mumbai, MH, India); 3-methyladenine (autophagy inhibitor, Sigma-Aldrich Co.); and lithium chloride (Wnt activator, Sigma-Aldrich Co.).

cis-[Ru(phen)2(xant)](PF6) [RXC]
DNA fragmentation (sub-G0/G1) (HCT116 cells [1]; 2.5 μM, 48 h, control […]): 7.1% | DNA fragmentation (sub-G0/G1) (HCT116 cells [1]; 2.5 μM, 72 h, control 2.0%): 18.8% | DNA fragmentation (sub-G0/G1) (HCT116 cells [1]; 5 μM, 48 h, control […]): 9.3% | DNA fragmentation (sub-G0/G1) (HCT116 cells [1]; 5 μM, 72 h, control 2.0%): 22.4% | cell cycle effect (HCT116 cells [1]; 10 μM, 24 h): cell cycle arrest in S-phase | DNA fragmentation (sub-G0/G1) (HCT116 cells [1]; 10 μM, 48 h, control […]): 9.6% | DNA fragmentation (sub-G0/G1) (HCT116 cells [1]; 10 μM, 72 h, control 2.0%): 34.3% | number of viable cells (HCT116 cells [2]): reduced the number of viable cells | HCT116 CD133-positive cells in colonospheres (HCT116 cells [3]; 10 μM, 24 h, control 47.8%): 19.5% | colonosphere formation (HCT116 cells [3]; 1.25-20 μM, 24, 48, 72 h): reduced colonosphere formation | mean number of pulmonary metastatic nodules (HCT116 cells [4]): 1.3 ± 0.4 | role of the proapoptotic protein BAD in induced cell death (BAD KO SV40 MEF): BAD-independent cell death
